Test results from patent US5700804A, “Pharmaceutical compounds” (Xenova Limited, priority 1992, dated 1997).

Target: PAI-1 (Homo sapiens, UniProt P05121)
Test: PAI chromogenic substrate assay (first S2251 assay, tPA/plasminogen system)
Assay type: biochemical
Procedure: In this assay, a compound is incubated with PAI-1 prior to addition to the tPA assay system. Inhibition of PAI-1 results in the production of plasmin from plasminogen. In turn, plasmin cleaves the chromogenic substrate S2251 (Kabi Vitrum) producing pNA (p-nitroaniline) which is detected spectrophotometrically at 405 nm (K. Nilsson et al, Fibrinolysis (1987) 1, 163-168).
Compounds of formula (A) were tested in a PAI chromogenic substrate assay. In the first assay (K. Nilsson, Fibrinolysis (1987) 1, 163-168) each compound was incubated with PAI-1 prior to addition to the tPA assay system. […] In turn, the plasmin cleaved the chromogenic substrate S2251 (Kabi-Vitrum) producing pNA (p-nitroaniline) which was detected spectrophotometrically at 405 nm.

Chain of PAI-1 (P05121 24-402): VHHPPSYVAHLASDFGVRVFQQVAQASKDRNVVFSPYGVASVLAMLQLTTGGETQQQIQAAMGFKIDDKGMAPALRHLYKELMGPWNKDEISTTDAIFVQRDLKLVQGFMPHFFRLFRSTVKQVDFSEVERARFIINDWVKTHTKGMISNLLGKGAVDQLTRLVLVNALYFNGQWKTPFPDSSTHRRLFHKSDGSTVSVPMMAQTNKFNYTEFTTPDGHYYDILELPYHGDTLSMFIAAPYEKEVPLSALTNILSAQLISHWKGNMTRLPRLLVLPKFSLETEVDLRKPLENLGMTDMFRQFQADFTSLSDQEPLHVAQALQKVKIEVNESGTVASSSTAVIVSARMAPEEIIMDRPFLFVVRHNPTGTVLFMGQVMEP

Row | SMILES | Inhibition of PAI-1 in the first S2251 chromogenic substrate assay (Concentration 7.5 μm) [%] | Inhibition of PAI-1 in the first S2251 chromogenic substrate assay (Concentration 15 μm) [%] | Inhibition of PAI-1 in the first S2251 chromogenic substrate assay (Concentration 30 μm) [%] | Inhibition of PAI-1 in the first S2251 chromogenic substrate assay (Concentration 60 μm) [%] | Inhibition of PAI-1 in the first S2251 chromogenic substrate assay (Concentration 12.5 μm) [%] | Inhibition of PAI-1 in the first S2251 chromogenic substrate assay (Concentration 25 μm) [%] | Inhibition of PAI-1 in the first S2251 chromogenic substrate assay (Concentration 50 μm) [%] | Inhibition of PAI-1 in the first S2251 chromogenic substrate assay (Concentration 100 μm) [%] | Inhibition of PAI-1 in the first S2251 chromogenic substrate assay (Concentration 6.25 μm) [%]
1 | CC(=O)Nc1ccc(/C=c2\[nH]c(=O)/c(=C/c3ccccc3)[nH]c2=O)cc1 [Compound 34, (3Z,6Z)-3-(4-Acetamidobenzylidene)-6-benzylidene-2,5-piperazinedione] | 24 | 76 | 77 | 72 | – | – | – | – | –
2 | CC(=O)Nc1ccc(/C=c2\[nH]c(=O)/c(=C/c3ccc(OC(=O)C(C)(C)C)cc3)[nH]c2=O)cc1 [Compound 82, (3Z,6Z)-3-(4-Acetamidobenzylidene)-6-(4-trimethylacetoxybenzylidene)-2,5-piperazinedione] | – | – | – | – | 1 | 1 | 3 | 80 | –
3 | O=c1[nH]/c(=C\c2ccccc2)c(=O)[nH]/c1=C\c1ccccc1 [Compound 45, (3Z,6Z)-3,6-Dibenzylidene-2,5-piperazinedione] | – | – | – | – | 1 | 1 | 13 | 53 | –
4 | COc1ccc(/C=c2\[nH]c(=O)/c(=C/c3ccc(OC(C)=O)cc3)[nH]c2=O)cc1 [Compound 37, (3Z,6Z)-3-(4-Acetoxybenzylidene)-6-(4-methoxybenzylidene)-2,5-piperazinedione] | – | – | – | – | – | 2 | 19 | 69 | –
5 | COc1ccc(/C=c2\[nH]c(=O)/c(=C/c3c(Cl)cccc3Cl)[nH]c2=O)cc1 [Compound 29, (3Z,6Z)-3-(2,6-Dichlorobenzylidene)-6-(4-methoxybenzylidene)-2,5-piperazinedione] | – | – | – | – | 1 | 34 | 76 | 80 | 0
6 | CCCCOc1ccc(/C=c2\[nH]c(=O)/c(=C/c3ccc(OC)cc3)[nH]c2=O)cc1 [Compound 47, (3Z,6Z)-3-(4-Butoxybenzylidene)-6-(4-methoxybenzylidene)-2,5-piperazinedione] | – | – | – | – | 14 | 14 | 58 | 75 | –
7 | O=c1[nH]/c(=C\c2ccc(F)cc2F)c(=O)[nH]/c1=C\c1ccccc1 [Compound 54, (3Z,6Z)-6-Benzylidene-3-(2,4-difluorobenzylidene)-2,5-piperazinedione] | – | – | – | – | 0 | 1 | 0 | 50 | –
8 | O=c1[nH]/c(=C\c2ccc(O)cc2Cl)c(=O)[nH]/c1=C\c1ccccc1 [Compound 85, (3Z,6Z)-6-Benzylidene-3-(2-chloro-4-hydroxybenzylidene)-2,5-piperazinedione] | – | – | – | – | 27 | 43 | 49 | 35 | 13
9 | CC(=O)Nc1ccc(/C=c2\[nH]c(=O)/c(=C/c3ccc(CNC(=O)OC(C)(C)C)cc3)[nH]c2=O)cc1 [Compound 68, (3Z,6Z)-3-(4-Acetamidobenzylidene)-6-(4-tert-butoxycarbonylaminomethylbenzylidene)-2,5-piperazinedione] | – | – | – | – | 37 | 67 | 89 | 63 | –
10 | CN(C)CCCOc1ccc(/C=c2\[nH]c(=O)/c(=C/c3ccccc3)[nH]c2=O)cc1 [Compound 98] | – | – | – | – | 67 | 74 | 71 | 72 | 4
11 | COC(=O)COc1ccc(/C=c2\[nH]c(=O)/c(=C/c3ccccc3)[nH]c2=O)cc1 [Compound 93, 4-[(3Z,6Z)-6-Benzylidene-2,5-dioxopiperazin-3-ylidene]methylphenoxyacetic acid, methyl ester] | – | – | – | – | 7 | 39 | 68 | 91 | 2
